Results from patent US20140336220A1, “COMPOSITION FOR PREVENTING OR TREATING OBESITY COMPRISING REBAMIPIDE” (The Catholic University of Korea Industry-Academic …, priority 2011, published 2014).

Key:
[1] = test system: animal models induced with obesity; assay: Adipocyte in liver frozen sections, haematoxylin and eosin and Oil red O staining; type: in vivo, mouse; conditions: oral administration, 51 days, H&E and Oil red O staining, vs control induced with obesity, FIG. 2
Description: In order to check fat inhibition effect of rebamipide, after supply of a high fat diet for 51 days was ended, a food was stopped at 12 hours before an experiment period was ended. Then, a frozen section (7 μm) obtained from a liver was haematoxylin and eosin staining and Oil red O staining. As a result of staining including the haematoxylin and eosin staining and Oil red O staining, it could be seen that in the liver obtained after oral administration with rebamipide, adipocyte were reduced as compared with a control induced with obesity (refer to FIG. 2).

[2] = test system: animal model with obesity induced arthritis; assay: Arthritis index in obesity induced arthritis (collagen induced arthritis) model; type: in vivo, C57BL/6 mouse; conditions: 300 mg/kg oral, 10 times, three times per week, up to 61 days, FIG. 11
[3] = test system: animal models induced with obesity; assay: Weight reduction effect in mice induced with obesity using a high fat food; type: in vivo, C57BL/6(H-2kb) mouse; conditions: 300 mg/kg oral
Description: The inventors of the present disclosure prepared animal models induced with obesity in order to check whether rebamipide has an effect of treating obesity. As a test animal, a C57BL/6(H-2kb) mouse was used. In order to prepare animal models induced with obesity, a high fat food was fed to the animal models induced with obesity. After rebamipide was orally administered with a dose of 300 mg/kg to the animal models induced with obesity, weights of a rebamipide-treated group and a control group induced with obesity were measured.

[4] = test system: animal group with obesity induced arthritis; assay: Type-II-collagen-specific IgG and IgG2a in serum by ELISA; type: in vivo, mouse; conditions: serum 1:100, vs obesity induced arthritis group, FIG. 13
Description: Blood was collected from the heart of a mouse in each group and centrifuged at 8000 rpm for 8 minutes at 20° C., so that the mouse serum of each group was obtained from a supernatant of the blood. The serum was diluted at a ratio of 1:100, and type-II-collagen-specific IgG and IgG2a were measured by an ELISA method.

[5] = test system: Th17 cells and Treg cells in spleen; assay: Th17 and Treg cells in spleen sections, confocal microscope; type: in vivo, mouse; conditions: obese mice treated with rebamipide, FIG. 5A, 5B
Description: (§1) In order to investigate whether or not rebamipide according to the present disclosure affected Th17 and Treg, the inventors of the present disclosure embedded a frozen section (optimal cutting temperature compound: O.C.T. compound) using the spleen of a mouse and rapidly cooled the tissue in liquid nitrogen and attached the tissue on a slide to a thickness of 7 μm using a cryo microtome. Then, the section was fixed with acetone and coated with 10% normal goat serum and blocked from a non-specific reaction for 30 minutes. Thereafter, the section was reacted at 4° C. overnight with primary antibodies, i.e. FITC-labeled anti-mFoxp3 Ab, PElabeled anti-mCD4 Ab, and APC-labeled anti-CD25 Ab, diluted with PBS (pH 7.5) at a ratio of 1:100 for Treg analysis and reacted with FITC-labeled anti-mCD4 Ab, and PE-labeled anti-mIL-17 for Th17 cell analysis. On the next day, the section was washed with a PBS solution, and a stained tissue was analyzed with a confocal microscope.

[6] = test system: animal models induced with obesity; assay: Serum cholesterol, LDL-cholesterol and triglyceride, dose comparison; type: in vivo, mouse; conditions: FIG. 7A
Description: An experimental animal group was etherized and blood was collected from the heart. The collected blood was put into a centrifuge tube and centrifuged at 8000 rpm for 8 minutes at 20° C., so that the serum was separated.

pre-adipocyte = assay: Adipocyte differentiation of pre-adipocyte, Oil red O analysis; type: cell-based; conditions: vs untreated cells, dependent on dose of rebamipide, FIG. 8
Description: In order to check whether or not rebamipide has a […] inhibition effect, the inventors of the present disclosure divided pre-adipocyte in an amount of 1.2×10^4/2 ml into a 24-well plate, and when the cells were completely packed, the cells were cultured again for 48 hours. After 48 hours, differentiation of adipocyte was induced with replacement of a culture medium added with dexamethasone, insulin, and isobutylmethylxanthine. In this case, rebamipide was also used to stimulate while being dissolved in DMSO. 3 days after differentiation, differentiation of adipocyte was maintained with replacement with a culture medium added with dexamethasone and insulin once per two days. After 4 days, Oil red O analysis was carried out.

[7] = test system: animal models induced with obesity; assay: Obesity improvement depending on dose: weight and liver; type: in vivo, mouse
Description: In order to check an obesity improvement effect depending on a treatment concentration of rebamipide, the inventors of the present disclosure orally administered rebamipide with a dose of 30 mg/kg and 100 mg/kg to an animal models induced with obesity prepared in Example 1 and then measured weights of the rebamipide treatment group and a mouse induced with obesity as a control group. For in vitro test, on the 63rd day after treatment with rebamipide, an experimental animal was killed and the liver of the mouse was extracted, and then, a size of the mouse and a weight of the liver were measured with the naked eye.

[8] = test system: animal group induced with obesity; assay: Brown fat to white fat ratio, interscapular region; type: in vivo, mouse; conditions: 30 mg/kg and 100 mg/kg, vs animal group induced with obesity, FIG. 10
Description: Thus, in order to check an effect of treatment with rebamipide on white fat and brown fat in vivo, the inventors of the present disclosure separated fat from an interscapular region of an animal group induced with obesity and a group treated with rebamipide with a dose of 30 mg/kg and 100 mg/kg and divided into white fat and brown fat. A weight of each of the white fat and the brown fat was measured, and an amount of the brown fat with respect to the white fat was calculated.

[9] = test system: Th17 cells and Treg cells in spleen; assay: Th17 and Treg cells in spleen of obesity induced arthritis model, confocal microscope; type: in vivo, mouse; conditions: FIG. 15
Description: as §1, with “Further, in” for “In”, “affects” for “according to the present disclosure affected”, “that is,” for “i.e.”

`O=C(NC(Cc1cc(=O)[nH]c2ccccc12)C(=O)O)c1ccc(Cl)cc1` (centres unmarked) [rebamipide, 2-(4-chlorobenzoylamino)-3-[2(1H)-quinolinon-4-yl]propionic acid] was tested, and the adipocyte in liver [1] was “remarkably reduced”, the arthritis index [2] was “decreased” and the “liver appearance with the naked eye” value ([3]; killed on the 51st day, FIG. 1B) was “bright red like a liver of a normal mouse”. The weight ([3]; obese mice on high fat food, vs control group, FIG. 1A) was “statistically significantly decreased”, the “type-II-collagen-specific IgG2a in serum” value [4] was “significantly decreased” and the “type-II-collagen-specific IgG in serum” value [4] was “significantly decreased”. For the same compound, the “Treg cells in spleen” value [5] was “increased”, the “expression of Th17 in spleen” value [5] was “reduced” and the LDL-cholesterol in serum ([6]; 30 mg/kg and 100 mg/kg oral) was “statistically significantly reduced”. For the same compound, the cholesterol in serum ([6]; 30 mg/kg and 100 mg/kg oral) was “statistically significantly reduced”, the triglyceride in serum ([6]; 30 mg/kg and 100 mg/kg oral) was “statistically significantly reduced” and the “reduction effect on serum cholesterol, LDL-cholesterol and triglyceride” value ([6]; 100 mg/kg oral, compared between doses) was “generally highest”. The “differentiation of adipocyte (Oil red O)” value (pre-adipocyte) was “differentiation of adipocyte did not occur”, the weight ([7]; 30 mg/kg and 100 mg/kg oral, vs control group, FIG. 6A) was “statistically reduced” and the weight reduction effect ([7]; 30 mg/kg oral, FIG. 6A) was “a weight reduction effect was illustrated”. For the same compound, the liver appearance ([7]; 100 mg/kg oral, 63rd day, FIG. 6B) was “bright red similarly to a liver of a normal control mouse”, the weight reduction effect ([7]; 100 mg/kg oral, FIG. 6A) was “highest” and the “ratio of the brown fat to the white fat” value [8] was “increased”. For the same compound, the “Treg cells in spleen” value [9] was “increased” and the “expression of Th17 in spleen” value [9] was “reduced”.
